From article PMC6891598, “Application of N-Dodecyl L-Peptide to Enhance Serum Stability while Maintaining Inhibitory Effects on Myometrial Contractions Ex Vivo” (Molecules, 2019)
Entries after “also recorded” stand apart in the source; their conditions may differ. Counter-ions that a name gives are not always drawn. Residues, ends and D or L forms follow the SMILES beside them.

Experiments:
[1] = test system: murine myometrial tissue (PGF2α-induced contractions; FP); assay: ex vivo mouse myometrial tissue contraction assay (PGF2α-induced); parameters: species or system mouse (CD-1); conditions: post-partum CD-1 mouse myometrial strips, Krebs buffer pH 7.4, 37 °C, 20 min pretreatment with peptide at two concentrations, then PGF2α; 4–6 experiments per group, means ± SEM, t-test, p < 0.05 vs vehicle
Method: All the peptides were initially tested in an ex vivo mouse myometrial tissue contraction assay. Contractile activity was measured on tissue that was harvested post-partum and treated with prostaglandin F2α (PGFα) alone (control) or in the presence of peptides L-4b-4g, L-7, and L-8. […] Mean tension induced by KCl (as a positive control) was not affected by L-4d.
Pregnant CD-1 mice (16-17 days gestation, term 19 days) were obtained from Charles River Inc. and used according to a protocol of the Animal Care Committee of Hôpital Sainte-Justine according to the principles of the Guide for the Care and Use of Experimental Animals of the Canadian Council on Animal Care. The animals were maintained on standard laboratory chow under a 12:12 light:dark cycle and allowed free access to chow and water.
The uterus from the CD-1 mouse was obtained from the animal immediately after term delivery under anesthesia (2.5% isoflurane). Briefly, a midline abdominal incision was made and the uterine horns were rapidly excised, cleansed carefully of the surrounding connective tissues, and removed. Longitudinal myometrial strips (2 to 3 mm wide and 1 cm long) were dissected free from the uterus and mounted isometrically in organ tissue baths. The initial tension was set at 2 g. The tissue baths contained 20 mL of Krebs buffer of the following composition (in mM): 118 NaCl, 4.7 KCl, 2.5 CaCl2, 0.9 MgSO4, 1 KH2PO4, 11.1 glucose, and 23 NaHCO3 (pH 7.4). The buffer was equilibrated with 95% oxygen/5% carbon dioxide at 37 °C. Isometric tension was measured by a force transducer and recorded by a BIOPAC data acquisition system (BIOPAC MP150, Montreal, PQ, Canada). Experiments were begun after 1 h equilibration. Mean tension of spontaneous contractions was measured using a BIOPAC digital polygraph system (AcqKnowledge); the same parameters were also determined after addition of PGF2α in the presence or the absence of a 20 min-pretreatment with different FP inhibitors. At the start of each experiment, mean tension of spontaneous myometrial contractions was considered as a reference response. Changes in mean tension (g) were expressed as percentages of the initial reference response (% of baseline).
At the start of each experiments, mean tension of spontaneous myometrial contractions was considered as a reference response. Increase in mean tension (%) was expressed as percentages of (X/Y)-100, where X is the change in mean tension (g) induced by PGF2α and Y is the initial reference response (g). Data are representative of 4–6 experiments per treated group. All results are expressed as means ± SEM and were compared by Independent t-tests. Statistical tests were performed with GraphPad Prism 4.3 software and p < 0.05 was considered statistically significant.

[2] = solubility in water (observation on handling); assay type: physicochemical; conditions: qualitative observation on the purified, freeze-dried peptide
Method: Linear sequences of L- and D-PDC31 linked to 2-chlorotrityl resin (L- and D-1) were obtained by solid phase peptide synthesis using standard Fmoc/t-Bu protocols. Peptide resin L-1 was treated with the appropriate aldehyde 2 (Scheme 1). The imine resin was washed to remove excess aldehyde, and reductive amination was performed using sodium cyanoborohydride to provide secondary amine resin 3. Removal of the protecting groups and resin cleavage were achieved using a cocktail of 95:2.5:2.5 TFA:TES:H2O to provide N-alkyl- and N-PEG-grafted peptides 4, which were purified by RP-HPLC (Table 1). […] An inseparable mixture of mono- and bis-N-alkyl peptides was isolated by HPLC from reaction with aldehyde of shorter chain length.
Increased lipophilic character may promote peptide aggregation and decrease solubility in aqueous solvent. […] For biological assays, solubility issues were surmounted by forming salts and using small amounts of DMSO. The influence of their amphiphilic character during purification by RP-HPLC and double alkylation from the reductive amination sequence may account for the lower isolated yields of peptides 4, 7 and 8.

Structure (SMILES)	effect on PGF2α-induced contractions (mean tension) of myometrial tissue [1]	solubility in water [2]	solubility in water ([2]; listed as 8 hydrochloride salt)
CCCCCCCCCCCCN[C@@H](C(=O)N[C@H](CC(C)C)C(=O)NCC(=O)N[C@H](Cc1c[nH]cn1)C(=O)N[C@H](CCCNC(N)=O)C(=O)N[C@H](CC(=O)O)C(=O)N[C@H](Cc1ccc(O)cc1)C(=O)N[C@H](CCCCN)C(=O)O)[C@H](C)CC [D-4d, N-Dodecyl-D-Ile-D-Leu-Gly-D-His-D-Cit-D-Asp-D-Tyr- D-Lys-OH] (HELM PEPTIDE1{[CCCCCCCCCCCCN[C@@H](C(=O)[*:2])[C@H](C)CC].[dL].G.[dH].[NC(=O)NCCC[C@@H](N[*:1])C(=O)[*:2]].[dD].[dY].[dK]}$$$$V2.0)	trends suggesting protective effects; also recorded: lower potency than the unmodified D-peptide, PDC-31	–	–
CCCCCCN[C@H](C(=O)N[C@@H](CC(C)C)C(=O)NCC(=O)N[C@@H](Cc1c[nH]cn1)C(=O)N[C@@H](CCCNC(N)=O)C(=O)N[C@@H](CC(=O)O)C(=O)N[C@@H](Cc1ccc(O)cc1)C(=O)N[C@@H](CCCCN)C(=O)O)[C@@H](C)CC [L-4b, N-Hexanyl-Ile-Leu-Gly-His-Cit-Asp-Tyr-Lys-OH] (HELM PEPTIDE1{[CCCCCCN[C@H](C(=O)[*:2])[C@@H](C)CC].L.G.H.[Cit].D.Y.K}$$$$V2.0)	trends suggesting protective effects; also recorded: not statistically significant	–	–
CCCCCCCCCCCCCN[C@H](C(=O)N[C@@H](CC(C)C)C(=O)NCC(=O)N[C@@H](Cc1c[nH]cn1)C(=O)N[C@@H](CCCNC(N)=O)C(=O)N[C@@H](CC(=O)O)C(=O)N[C@@H](Cc1ccc(O)cc1)C(=O)N[C@@H](CCCCN)C(=O)O)[C@@H](C)CC [L-4e, N-Tridecanyl-Ile-Leu-Gly-His-Cit-Asp-Tyr-Lys-OH] (HELM PEPTIDE1{[CCCCCCCCCCCCCN[C@H](C(=O)[*:2])[C@@H](C)CC].L.G.H.[Cit].D.Y.K}$$$$V2.0)	–	Except for peptide 4e, bearing the 18-carbon alkyl chain, peptides 4 were all soluble in water	–
CC[C@H](C)[C@H](NCCOCCOCCOCCOC)C(=O)N[C@@H](CC(C)C)C(=O)NCC(=O)N[C@@H](Cc1c[nH]cn1)C(=O)N[C@@H](CCCNC(N)=O)C(=O)N[C@@H](CC(=O)O)C(=O)N[C@@H](Cc1ccc(O)cc1)C(=O)N[C@@H](CCCCN)C(=O)O [L-4g, N-2,7,8,11-tetraoxytetradecane-Ile-Leu-Gly-His-Cit-Asp-Tyr-Lys-OH] (HELM PEPTIDE1{[CC[C@H](C)[C@H](NCCOCCOCCOCCOC)C(=O)[*:2]].L.G.H.[Cit].D.Y.K}$$$$V2.0)	Neither PEGylated peptide L-4g nor N-farnesyl peptide L-7 exhibited activity	–	–
CC[C@H](C)[C@H](NCC=C(C)CCC=C(C)CCC=C(C)C)C(=O)N[C@@H](CC(C)C)C(=O)NCC(=O)N[C@@H](Cc1c[nH]cn1)C(=O)N[C@@H](CCCNC(N)=O)C(=O)N[C@@H](CC(=O)O)C(=O)N[C@@H](Cc1ccc(O)cc1)C(=O)N[C@@H](CCCCN)C(=O)O [L-7, N-Farnesyl-Ile-Leu-Gly-His-Cit-Asp-Tyr-Lys-OH] (HELM PEPTIDE1{[CC[C@H](C)[C@H](NCC=C(C)CCC=C(C)CCC=C(C)C)C(=O)[*:2]].L.G.H.[Cit].D.Y.K}$$$$V2.0)	Neither PEGylated peptide L-4g nor N-farnesyl peptide L-7 exhibited activity	soluble in water	–
CCCCCCCCCCCC(=O)N[C@H](C(=O)N[C@@H](CC(C)C)C(=O)NCC(=O)N[C@@H](Cc1c[nH]cn1)C(=O)N[C@@H](CCCNC(N)=O)C(=O)N[C@@H](CC(=O)O)C(=O)N[C@@H](Cc1ccc(O)cc1)C(=O)N[C@@H](CCCCN)C(=O)O)[C@@H](C)CC [L-8 HCl salt] (HELM PEPTIDE1{[CCCCCCCCCCCC(=O)[*:2]].I.L.G.H.[Cit].D.Y.K}$$$$V2.0)	–	–	dissolved readily in water
